This is an account of results in patent US8835442B2, “3-substituted 7-imino-2-thioxo-3, 7-dihydro-2H-thiazolo [4,5-di pyrimidin-6-yl—and process for preparation thereof” (Council of Scientific & Industrial Research, priority 2009, dated 2014).

Where two headings read alike, the source gives them in different places.

One data set deals with T1, A2A receptor (Homo sapiens, UniProt P29274).
T1 construct: host or cells: HEK 293
In words: cAMP functional assay in forskolin-pretreated HEK 293 cells. The data set is classed as cell-based. Particulars: 25 μM forskolin 2 h, then 100 nM compound for 24 h. Here is the method:
To determine the modulation in cAMP concentrations, cells were pre-treated with Forskolin. Forskolin is commonly used to activate adenylyl cyclase, so as to raise the levels of cAMP, in the various cell physiology experiments. […] Cells were washed with ice-cold PBS (pH 7.4). Further, cells were treated with 0.1M HCl, incubated for 10 minutes and visually inspected to verify cell lysis. Lysed cells were centrifuged at 1000 rpm at room temperature and the supernatant was used directly for cAMP assay using direct cAMP assay kit. All standards and samples were run in duplicate. 50 μl of the neutralizing reagent was added into each well of 96-well microplate coated with goat anti-rabbit IgG antibody, except the total activity (TA) and blank wells. Again, 100 μl of HCl (0.1M) was added into the NSB (Non-specific bound) and the Bo (0 pmol/ml standard) Wells: 100 μl of standards 1 to 5 was pippeted into the appropriate wells. 50 μl of 0.1M HCl was added into the NSB wells, followed by 50 μl of blue conjugate (alkaline phosphatase conjugated with cAMP) into each well except the TA and blank wells. 50 μl of yellow coloured primary antibody against cAMP into each well, except the blank, TA and NSB wells. Microplate was incubated at room temperature for 2 hours on a plate shaker. Wells were washed twice with 400 μl of wash solution. 5 μl of blue conjugate was added to the TA wells, followed by the addition of 200 μl of p-nitrophenyl phosphate substrate solution to every well. Plate was again incubated for 1 hour without shaking. Reaction was stopped by adding 50 μl of stop solution to every well.
The average net O.D. bound for each standard and sample was calculated using formula; Average Net OD=Average bound OD−Average NSB OD
The binding of each pair of standard wells as a percentage of the maximum binding well (Bo) was calculated using the formula; Percent Bound=Net OD/Net Bo OD×100
Standard curve was prepared using Logit-Log Paper plot by drawing percent bound (B/Bo) versus concentration of cAMP for the standards. The concentration of the cAMP in the samples was determined by interpolation.
Binding parameters were estimated by the computerized non-linear fitting program Graph Pad (Prism 4.0). […] Data were expressed as geometric means with 95% confidence limits in parentheses. Estimation of cAMP concentrations in functional assay was carried by Student's paired t-test. P<0.05 was considered significant. All analysis was performed by using GraphPad Prism 4.0 (GraphPad Software, San Diego, USA). Results are given, as mean±S.E.M

A further data set deals with human A2AR (Homo sapiens, UniProt P29274). In words: Competitive radioligand binding assay, [3H] ZM 241385, membranes of HEK 293 cells stably expressing human A2AR. Particulars: for hA1/hA2A ratio: selectivity: Ki hA1 / Ki hA2A; for selectivity over A1 adenosine receptor: A2AR versus A1R binding.
A further data set addresses T2, human A1R (Homo sapiens, UniProt P30542).
T2 sequence (P30542 1-326): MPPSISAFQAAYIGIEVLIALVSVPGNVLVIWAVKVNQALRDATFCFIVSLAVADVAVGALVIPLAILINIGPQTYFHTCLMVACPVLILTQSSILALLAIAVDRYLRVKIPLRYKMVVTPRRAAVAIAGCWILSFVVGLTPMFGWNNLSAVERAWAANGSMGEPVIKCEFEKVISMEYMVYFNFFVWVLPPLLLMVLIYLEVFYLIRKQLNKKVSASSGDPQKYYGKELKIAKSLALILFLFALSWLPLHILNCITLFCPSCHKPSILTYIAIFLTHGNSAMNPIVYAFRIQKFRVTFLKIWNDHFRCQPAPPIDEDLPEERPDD
In words: Competitive radioligand binding assay, [3H] DPCPX, membranes of HEK 293 cells stably expressing human A1R.

The mark [1] stands for this setting: read-out: hA1 binding Ki ± SD, displacement of 0.75 nM [3H] DPCPX, HEK 293 membranes, test compounds 1 pM to 1 μM.
[2] abbreviates: read-out: hA2A binding Ki ± SD, displacement of 1 nM [3H] ZM 241385, HEK 293 membranes, test compounds 1 pM to 1 μM.

Sequence of human A2AR (P29274 whole entry): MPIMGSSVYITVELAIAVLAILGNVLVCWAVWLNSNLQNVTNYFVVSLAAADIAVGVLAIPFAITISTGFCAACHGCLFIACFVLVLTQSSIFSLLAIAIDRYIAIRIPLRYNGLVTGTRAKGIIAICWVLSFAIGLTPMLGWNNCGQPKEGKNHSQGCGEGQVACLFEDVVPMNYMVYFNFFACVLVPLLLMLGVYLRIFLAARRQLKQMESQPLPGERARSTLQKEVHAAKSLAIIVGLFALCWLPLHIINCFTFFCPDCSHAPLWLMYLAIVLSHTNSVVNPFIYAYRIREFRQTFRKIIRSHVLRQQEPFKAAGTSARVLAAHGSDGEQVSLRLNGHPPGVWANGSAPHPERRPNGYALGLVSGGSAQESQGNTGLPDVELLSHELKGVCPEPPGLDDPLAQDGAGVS
T1 sequence (P29274 whole entry): as above
Method for human A1R: (§1) Aliquots of membrane proteins from both A2AR and A1R were rapidly frozen and stored at −20° C.
(§2) About 10 μg of membrane protein was added to each well of multiscreen 96-well plate equipped with GF/B filters. Incubation buffer (50 mM Tris, 1 mM EDTA, pH 7.4) containing adenosine deaminase (1 U/ml) was added to each well to remove endogenous adenosine bound to the receptors and volume was adjusted to 100 μl by adding incubation buffer. Plate was incubated at 37° C. for 1 hour. […] Final volume was adjusted to 200 μl by adding incubation buffer and incubated at 26° C. for 30 minutes. Binding reaction was terminated by rapid filteration of filter plates using vacuum manifold system. Filterate (unbound radioligand) was collected in a 96-well plate laying down the filter plate. Filters were washed three times with ice-cold washing buffer (50 mM Tris-Cl; 2.5 mM MgCl2 pH 7.4). Finally, 100 μl of scintillation fluid was added to all wells of plate containing unbound filtrate as well as to the filter plate (bound radioligand) and incubated overnight at room temperature. […] DPCPX were read using β-counter.
(§3) About 10 μg of membrane protein was added to each well of a 96-well filter plate. Incubation buffer containing adenosine deaminase (1 U/ml) was added to the membrane protein and incubated at 37° C. for 1 hour, to remove endogenous adenosine. […] Filter plates were incubated at 26° C. for 30 minutes and reaction was terminated by rapid filtration of unbound radioligands. Filters containing ligand bound receptors were washed three times with ice-cold washing buffer to completely remove any unbound radioligand or receptor. Finally, 100 μl of scintillation fluid was added to each well and incubated overnight at room temperature. β-counts emitted from bound radioligands ([^3H] ZM241385 and [^3H] DPCPX) were counted using β-counter. Duplicate values of β-counts per minute at corresponding concentrations (1 pM to 1 μM) were added to the data sheet of graph pad prism 4.0. Concentration values were considered as X-values and counts per minute were considered as Y-values (in duplicate). X-values were transformed into logX and Ki value was calculated using nonlinear regression (curve fit program).
(§4) Binding parameters were estimated by the computerized non-linear fitting program Graph Pad (Prism 4.0). […] Data were expressed as geometric means with 95% confidence limits in parentheses. […] P<0.05 was considered significant. All analysis was performed by using GraphPad Prism 4.0 (GraphPad Software, San Diego, USA). Results are given, as mean±S.E.M
Method for human A2AR: as §1, §2, §3, §4

Regarding `CCn1c(=S)sc2c(=N)n(NC(N)=O)cnc21` [Compound 15, (3-Ethyl-7-imino-2-thioxo-3,7-dihydro-2H-thiazolo[4,5-d]pyrimidin-6-yl)-urea], the melting point is 212 °C. The cAMP concentration on A2A receptor was 0.085 nM. Besides, on human A2AR, the Ki was found to be 0.09 ± 0.01 nM and the hA1/hA2A ratio was 0.00177.

The compound `N=c1c2sc(=S)n(Cc3ccccc3)c2ncn1NC(N)=O` [Compound 21, (3-Benzyl-7-imino-2-thioxo-3,7-dihydro-2H-thiazolo[4,5-d]pyrimidin-6-yl)-urea] registered a melting point of 190 °C. Also, the affinity at human A1R, expressed as Ki, was 0.14 ± 0.086 nM. On A2A receptor, the cAMP concentration was found to be 0.067 nM. At human A2AR, the affinity corresponds to a Ki of 0.023 ± 0.014 nM and the hA1/hA2A ratio is reported as 6.09.

In the case of `N=c1c2sc(=S)n(-c3ccccc3)c2ncn1NC(=O)c1ccco1` [Compound 26, Furan-2-carboxylic acid (7-imino-3-phenyl-2-thioxo-3,7-dihydro-2H-thiazolo[4,5-d]pyrimidin-6-yl)-amide], the melting point was determined as 228 °C. This compound also gave a Ki at human A1R of 0.0085 ± 0.001 nM. Moreover, the cAMP concentration at A2A receptor is 0.048 nM. Also, at human A2AR, the Ki is 0.33 ± 0.75 nM and the hA1/hA2A ratio is 0.026.

For the compound `CCCn1c(=S)sc2c(=N)n(NC(N)=O)cnc21` [Compound 16], the melting point amounted to 220 °C. Besides, on human A1R (setting [1]), the Ki is 2.8 ± 0.8 nM. At A2A receptor, the cAMP concentration is recorded as 0.14 nM. Besides, on human A2AR, the “selectivity over A1 adenosine receptor” value came out at 766 fold and the hA1/hA2A ratio is listed as 736.84. Also, the Ki at human A2AR (setting [2]) was found to be 0.0038 ± 0.001 nM.

The compound `C=CCn1c(=S)sc2c(=N)n(NC(N)=O)cnc21` [Compound 18] displayed a melting point of 202 °C. The compound further gave an inhibition constant Ki on human A1R of 0.47 ± 0.1 nM. The cAMP concentration on A2A receptor came to 0.08 nM. Besides, on human A2AR, the affinity, expressed as Ki, was 0.092 ± 0.01 nM and the hA1/hA2A ratio was 5.11.

`CCCCn1c(=S)sc2c(=N)n(NC(=O)c3ccco3)cnc21` [Compound 24, Furan-2-carboxylic acid (3-butyl-7-imino-2-thioxo-3,7-dihydro-2H-thiazolo[4,5-d]pyrimidin-6-yl)-amide] returned a melting point of 210 °C. The compound further displayed a Ki at human A1R of 0.0053 ± 0.001 nM. At A2A receptor, the cAMP concentration is given as 0.06 nM. For the same compound, at human A2AR, the Ki worked out at 0.029 ± 0.01 nM and the hA1/hA2A ratio is listed as 0.183.

Turning to `N=c1c2sc(=S)n(-c3ccccc3)c2ncn1NC(N)=O` [Compound 19, (7-Imino-3-phenyl-2-thioxo-3,7-dihydro-2H-thiazolo[4,5-d]pyrimidin-6-yl)-urea], the melting point was found to be 225 °C. At human A1R, this compound showed an inhibition constant Ki of 1.5 ± 1.1 nM. Moreover, the cAMP concentration on A2A receptor is listed as 0.078 nM. For the same compound, at human A2AR, the Ki stood at 0.063 ± 0.008 nM and the hA1/hA2A ratio was 23.81.

On to `CCn1c(=S)sc2c(=N)n(NC(=O)c3ccco3)cnc21` [Compound 22, Furan-2-carboxylic acid (3-ethyl-7-imino-2-thioxo-3,7-dihydro-2H-thiazolo[4,5-d]pyrimidin-6-yl)-amide], for which the melting point amounted to 226 °C. The same compound displayed a Ki on human A1R of 0.016 ± 0.01 nM. Further, the cAMP concentration on A2A receptor worked out at 0.12 nM. At human A2AR, the Ki came to 1.2 ± 1.1 nM and the hA1/hA2A ratio amounted to 0.0133.

In the case of `N=c1c2sc(=S)n(-c3ccc(I)cc3)c2ncn1NC(N)=O` [Compound 20, (3-p-iodophenyl-7-imino-2-thioxo-3,7-dihydro-2H-thiazolo[4,5-d]pyrimidin-6-yl)-urea], the melting point was 235 °C. Besides, on human A1R, the inhibitory constant (Ki) came to 2.5 ± 1.1 nM. The cAMP concentration at A2A receptor is listed as 0.076 nM. Besides, at human A2AR, the affinity corresponds to a Ki of 0.017 ± 0.01 nM, the “selectivity over A1 adenosine receptor” value is reported as 144 fold and the hA1/hA2A ratio worked out at 147.06.

“Furan-2-carboxylic acid (7-imino-3-propenyl-2-thioxo-3,7-dihydro-2H-thiazolo[4,5-d]pyrimidin-6-yl)-amide [Compound 25]”: the Ki on human A1R (setting [1]) was 0.59 ± 0.11 nM; at human A2AR (setting [2]), 0.17 ± 0.1 nM. For the same compound, the cAMP concentration at A2A receptor is 0.084 nM. Further, the hA1/hA2A ratio on human A2AR worked out at 3.47.

In turn, `CCCCn1c(=S)sc2c(=N)n(NC(N)=O)cnc21` [Compound 17, (7-Imino-3-butyl-2-thioxo-3,7-dihydro-2H-thiazolo[4,5-d]pyrimidin-6-yl)-urea] registered a melting point of 222 °C. Moreover, the affinity on human A1R, expressed as Ki, was 1.04 ± 0.84 nM. For the same compound, the cAMP concentration on A2A receptor amounted to 0.083 nM. For the same compound, at human A2AR, the inhibitory constant (Ki) came to 0.089 ± 0.01 nM and the hA1/hA2A ratio stood at 11.685.

The compound `CCCn1c(=S)sc2c(=N)n(NC(=O)c3ccco3)cnc21` [Compound 23, Furan-2-carboxylic acid (7-imino-3-propyl-2-thioxo-3,7-dihydro-2H-thiazolo[4,5-d]pyrimidin-6-yl)-amide] came in with a melting point of 206 °C. This compound also showed a Ki on human A1R of 0.087 ± 0.05 nM. Further, the cAMP concentration on A2A receptor was 0.092 nM. At human A2AR, the inhibition constant Ki stood at 0.024 ± 0.01 nM and the hA1/hA2A ratio is reported as 3.625.
